# Test results as given in patent US20230346670A1, “Prebiotic Oral Care Compositions and Methods” (Colgate-Palmolive Company, priority 2020, published 2023).
# “And” between values parts separate entries of the source, which are not always exact repeats. Identical values can stand only once. Marks after values point to notes of the source that are not given here.
# Legend:
# Assay type in all cases: cell-based
# [1] = system: F. nucleatum virulence genes; experiment: Virulence gene expression in multi-species biofilm (SYBR RT-qPCR); details: for fold change in ABC transp. perm. (ABC transporter permease) expression, geometric mean (95% C.I.) / fold change in EF-G expression, geometric mean (95% C.I.) / fold change in but. -coA transf. (butyrate-acetoacetate CoA-transferase) expression, geometric mean (95% C.I.) / fold change in hemin receptor expression, geometric mean (95% C.I.) / fold change in hemolysin expression, geometric mean (95% C.I.) / fold change in ompA expression, geometric mean (95% C.I.) / fold change in transposase expression, geometric mean (95% C.I.): relative to control = 1, 2^-ΔΔCt, n = 3
# In short: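 Multi-species biofilms on CAD-HA disks (Amsterdam Active Adhesion model) established 24 h at 37° C. under microaerophilic conditions, then rinsed 3 min three times daily for 3 days with substrate (1 M or 1% (w/v) in PBS); PBS pH 5.7 control. 33 virulence genes from 4 periodontal pathogens quantified by SYBR RT-qPCR, housekeeping-normalized; fold change by 2^-ΔΔCt, geometric mean (n = 3).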
# [2] = system: multi-species biofilm (beneficial/commensal species, periodontal pathogens, cariogenic pathogens); experiment: Multi-species biofilm composition, relative proportions and group changes
# In short: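 Multi-species biofilms grown 24 h on calcium-deficient hydroxyapatite disks in the Amsterdam Active Adhesion model. Then rinsed 3 times daily for 3 min (RT, 250 rpm) over 3 days with 1 M NADG, α-D-lactose, D-(+)-trehalose or D-(+)-raffinose; PBS pH 5.7 without substrate as control. Species abundance given as mean ± SD (n = 3) log genome equivalents per mL.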
# [3] = system: A. actinomycetemcomitans virulence genes; experiment: Virulence gene expression in multi-species biofilm (SYBR RT-qPCR)
# In short: (§1)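 Multi-species biofilms on hydroxyapatite disks were grown 24 h under microaerophilic conditions at 37 °C, then rinsed three times daily for 3 min over 3 days with substrate in PBS at 1 M or 1% (w/v); PBS pH 5.7 served as control. Virulence gene expression was measured by SYBR RT-qPCR normalized to housekeeping genes, giving 2^-ΔΔCt fold change versus control as geometric mean (n = 3).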
# [4] = system: P. gingivalis virulence genes; experiment: as above; details: for fold change in fimA expression, geometric mean (95% C.I.) / fold change in kgp expression, geometric mean (95% C.I.) / fold change in partC expression, geometric mean (95% C.I.) / fold change in rgpA expression, geometric mean (95% C.I.): relative to control, 2^-ΔΔCt, n = 3
# In short: as §1
# [5] = system: human oral keratinocytes (HOK-18A); experiment: Inflammatory mediator gene expression in keratinocytes exposed to substrate-treated biofilms (SYBR RT-qPCR); details: relative to control, n = 3
# In short: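 HOK-18A keratinocytes were exposed to multi-species biofilms treated with substrates dissolved in PBS at 1 M or 1% (w/v). Inflammatory mediator expression was measured by SYBR RT-qPCR against β-actin, with fold change versus control by 2^-ΔΔCt, reported as geometric mean (n = 3).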
# [6] = Table 3, separate experiments, concentration not given
# [7] = lower part of Table 6a, substrate 1%(w/v), relative to control = 1
# [8] = substrate 1 M, relative to control = 1, 2^-ΔΔCt, n = 3
# [9] = HOK-18A exposed to biofilms treated with substrate 1% (w/v)
# [10] = HOK-18A exposed to biofilms treated with substrate 1 M
smiles,measurement,setting,value
"CC(=O)N[C@H]1C(O)O[C@H](CO)[C@@H](O)[C@@H]1O (stereo partly drawn) [NADG, N-acetyl-D-glucosamine]","fold change in ABC transp. perm. (ABC transporter permease) expression, geometric mean (95% C.I.)",[1]; substrate 1% (w/v),0.33 (0.12-0.87)^∗ fold
same,"fold change in EF-G expression, geometric mean (95% C.I.)",[1]; substrate 1% (w/v),0.10 (0.02-0.45)^∗ fold
same,"fold change in but. -coA transf. (butyrate-acetoacetate CoA-transferase) expression, geometric mean (95% C.I.)",[1]; substrate 1% (w/v),0.21 (0.11-0.39)^∗ fold
same,"fold change in hemin receptor expression, geometric mean (95% C.I.)",[1]; substrate 1% (w/v),0.19 (0.02-1.67)^∗ fold
same,"fold change in hemolysin expression, geometric mean (95% C.I.)",[1]; substrate 1% (w/v),0.79 (0.30-2.04) fold
same,"fold change in ompA expression, geometric mean (95% C.I.)",[1]; substrate 1% (w/v),0.74 (0.18-2.98) fold
same,"fold change in transposase expression, geometric mean (95% C.I.)",[1]; substrate 1% (w/v),0.98 (0.18-5.39) fold
same,"upregulation of F. nucleatum virulence gene expression, range over genes",[1]; substrate 1 M,more limited and only significant for 2 genes
same,"fold change in ABC transp. perm. (ABC transporter permease) expression, geometric mean (95% C.I.)",[1]; substrate 1 M,3.33 (2.53-4.39)^∗ fold
same,"fold change in EF-G expression, geometric mean (95% C.I.)",[1]; substrate 1 M,1.45 (0.93-2.26) fold
same,"fold change in but. -coA transf. (butyrate-acetoacetate CoA-transferase) expression, geometric mean (95% C.I.)",[1]; substrate 1 M,1.21 (0.99-1.49) fold
same,"fold change in hemin receptor expression, geometric mean (95% C.I.)",[1]; substrate 1 M,3.26 (2.24-4.76)^∗ fold
same,"fold change in hemolysin expression, geometric mean (95% C.I.)",[1]; substrate 1 M,1.90 (1.29-2.79) fold
same,"fold change in ompA expression, geometric mean (95% C.I.)",[1]; substrate 1 M,1.33 (0.78-2.25) fold
same,"fold change in transposase expression, geometric mean (95% C.I.)",[1]; substrate 1 M,1.27 (0.68-2.37) fold
same,relative proportion of beneficial or commensal species in biofilm,"[2]; Table 1a, substrate 1 M",97.86±1.11 % (Geq/mL) and 97.86 (+/- 1.11)^∗ % (Geq/mL)
same,relative proportion of cariogenic pathogens in biofilm,"[2]; Table 1a, substrate 1 M",0.68±0.33 % (Geq/mL) and 0.68 (+/- 0.33) % (Geq/mL)
same,relative proportion of periodontal pathogens in biofilm,"[2]; Table 1a, substrate 1 M",1.46±0.97 % (Geq/mL) and 1.46 (+/- 0.97)^∗ % (Geq/mL)
same,relative proportion of beneficials/commensals in biofilm,[2]; [6],60.07 (+/- 8.25) % (Geq/mL)
same,relative proportion of cariogenic pathogens in biofilm,[2]; [6],0.66±0.27 % (Geq/mL) and 0.66 (+/- 0.27^∗) % (Geq/mL)
same,relative proportion of periodontal pathogens in biofilm,[2]; [6],39.27 (+/- 7.98) % (Geq/mL)
same,"fold change in aae expression, geometric mean (95% C.I.)",[3]; [7],1.55 (1.18-2.03) fold
same,"fold change in apaH expression, geometric mean (95% C.I.)",[3]; [7],0.73 (0.41-1.29) fold
same,"fold change in cdtB expression, geometric mean (95% C.I.)",[3]; [7],1.05 (0.61-1.81) fold
same,"fold change in emaA expression, geometric mean (95% C.I.)",[3]; [7],0.68 (0.15-3.07) fold
same,"fold change in flp expression, geometric mean (95% C.I.)",[3]; [7],0.54 (0.19-1.56) fold
same,"fold change in ltxA expression, geometric mean (95% C.I.)",[3]; [7],0.4 (0.11-1.39) fold
same,"fold change in omp29 expression, geometric mean (95% C.I.)",[3]; [7],0.77 (0.69-0.87) fold
same,"fold change in omp100 expression, geometric mean (95% C.I.)",[3]; [7],0.71 (0.42-1.18) fold
same,"fold change in orf859 expression, geometric mean (95% C.I.)",[3]; [7],1.99 (0.94-4.22)* fold
same,"fold change in pgA expression, geometric mean (95% C.I.)",[3]; [7],1.07 (0.29-3.97) fold
same,"fold change in vapA expression, geometric mean (95% C.I.)",[3]; [7],0.65 (0.48-0.86) fold
same,"fold change in vppA expression, geometric mean (95% C.I.)",[3]; [7],0.28 (0.09-0.86)* fold
same,"fold change in aae expression, geometric mean (95% C.I.)",[3]; [8],0.24 (0.18-0.33)^∗ fold
same,"fold change in apaH expression, geometric mean (95% C.I.)",[3]; [8],0.08 (0.02-0.29)^∗ fold
same,"fold change in cdtB expression, geometric mean (95% C.I.)",[3]; [8],0.04 (0.01-0.20)* fold
same,"fold change in emaA expression, geometric mean (95% C.I.)",[3]; [8],0.29 (0.07-1.20)* fold
same,"fold change in flp expression, geometric mean (95% C.I.)",[3]; [8],2.40 (0.67-8.67) fold
same,"fold change in ltxA expression, geometric mean (95% C.I.)",[3]; [8],0.01 (0.00-0.20)* fold
same,"fold change in omp29 expression, geometric mean (95% C.I.)",[3]; [8],0.19 (0.09-0.38)* fold
same,"fold change in omp100 expression, geometric mean (95% C.I.)",[3]; [8],0.03 (0.01-0.05)* fold
same,"fold change in orf859 expression, geometric mean (95% C.I.)",[3]; [8],0.13 (0.05-0.36)* fold
same,"fold change in pgA expression, geometric mean (95% C.I.)",[3]; [8],11.6 (3.23-41.74)* fold
same,"fold change in vapA expression, geometric mean (95% C.I.)",[3]; [8],1.00 (0.58-1.75) fold
same,"fold change in vppA expression, geometric mean (95% C.I.)",[3]; [8],0.49 (0.41-0.59) fold
same,downregulation of P. gingivalis partC expression,[4]; substrate 1% (w/v),approximately 2.8 fold
same,"fold change in fimA expression, geometric mean (95% C.I.)",[4]; substrate 1 % (w/v),1.15 (0.32-4.06) fold
same,"fold change in kgp expression, geometric mean (95% C.I.)",[4]; substrate 1 % (w/v),1.81 (0.44-7.50) fold
same,"fold change in partC expression, geometric mean (95% C.I.)",[4]; substrate 1 % (w/v),0.36 (0.08-1.68)^∗ fold
same,"fold change in rgpA expression, geometric mean (95% C.I.)",[4]; substrate 1 % (w/v),1.31 (1.03-1.66) fold
same,"fold change in fimA expression, geometric mean (95% C.I.)",[4]; substrate 1 M,0.79 (0.44-1.39) fold
same,"fold change in kgp expression, geometric mean (95% C.I.)",[4]; substrate 1 M,0.07 (0.04-0.13)^∗ fold
same,"fold change in partC expression, geometric mean (95% C.I.)",[4]; substrate 1 M,0.19 (0.13-0.28)^∗ fold
same,"fold change in rgpA expression, geometric mean (95% C.I.)",[4]; substrate 1 M,0.39 (0.18-0.84) fold
same,"fold change in IL-1β gene expression, geometric mean (C.I.)",[5]; [9],0.71 (0.38-1.33)^∗ fold
same,"fold change in IL-6 gene expression, geometric mean (C.I.)",[5]; [9],0.73 (0.58-0.93)^∗ fold
same,"fold change in IL-8 gene expression, geometric mean (C.I.)",[5]; [9],1.00 (0.78-1.27) fold
same,"fold change in MMP-8 gene expression, geometric mean (C.I.)",[5]; [9],0.52 (0.17-1.6)^∗ fold
same,"fold change in TNF-α gene expression, geometric mean (C.I.)",[5]; [9],0.71 (0.28-1.35)^∗ fold
same,"fold change in IL-1β gene expression, geometric mean (C.I.)",[5]; [10],0.75 (0.55-1.02) fold
same,"fold change in IL-6 gene expression, geometric mean (C.I.)",[5]; [10],0.57 (0.46-0.71) fold
same,"fold change in IL-8 gene expression, geometric mean (C.I.)",[5]; [10],0.14 (0.06-0.36)^∗ fold
same,"fold change in MMP-8 gene expression, geometric mean (C.I.)",[5]; [10],1.28 (0.79-2.08) fold
same,"fold change in TNF-α gene expression, geometric mean (C.I.)",[5]; [10],0.89 (0.59-1.34) fold
